In brackets after ≈: the same amount, converted by molar mass.
Key:
[1] = system: Human cervical cancer Hela cells; assay: Cell proliferation assay (CCK-8); format: cell-based; settings: 72 h
In short: (§1)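 OD450 after 1.5–3 h CCK-8 (WST-8) development, following 72 h compound exposure of 5000 cells/well plated 24 h earlier in DMEM/10% FBS. Duplicate wells; DMSO ≤2‰. Inhibition vs blank and vehicle control, IC50 by variable-slope fit.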

[2] = system: esophageal cancer Eca-109 cells; assay: Cell proliferation assay (CCK-8); format: cell-based; settings: Homo sapiens, Eca-109, 72 h
In short: as §1

[3] = system: human breast cancer MCF7 cells; assay: Cell proliferation assay (CCK-8); format: cell-based; settings: MCF7, 72 h
In short: as §1

[4] = system: human gastric cancer MKN-45 cells; assay: Cell proliferation assay (CCK-8); format: cell-based; settings: MKN-45, 72 h
In short: as §1

[5] = system: human leukemia K562 cells; assay: Cell proliferation assay (CCK-8); format: cell-based; settings: K562, 72 h
In short: as §1

[6] = system: human liver cancer HepG2 cells; assay: Cell proliferation assay (CCK-8); format: cell-based; settings: HepG2, 72 h
In short: as §1

[7] = system: human lung cancer A549 cells; assay: Cell proliferation assay (CCK-8); format: cell-based; settings: A549, 72 h
In short: as §1

[8] = system: pancreatic cancer PANC-1 cells; assay: Cell proliferation assay (CCK-8); format: cell-based; settings: Homo sapiens, PANC-1, 72 h
In short: as §1

Kunming breed mice = assay: Toxicity test after intraperitoneal administration to mice; format: in vivo; settings: 14 d; for Deaths: high and low doses (BFA effective amount conversion), ip., mice; for Mental condition of the animals after administration / Results of anatomy: abnormality in organs: male, Kunming, mouse, in vivo, ip
Procedure: Objective: Observation of toxic effects of compounds after intraperitoneally administration (ip.) to mice
1) Agents: Compounds disclosed herein were formulated to a suitable concentration.
2) Animals: Kunming breed mice, weight 18-22 g, male. Provided by Jinan Pengyue Laboratory Animal Breeding Co., Ltd. Animal license number: SCXK (Shandong 20140007)
Method: Kunming breed mice, were randomly grouped by weight, 6 mice per group, namely normal control group, BFA high and low dose groups (100 mg/kg and 50 mg/kg, respectively), and high and low dose groups of some compounds disclosed herein (BFA effective amount conversion). […] After 14 d of continuous administration, all the animals were weighed, and the animals were executed to observe whether there were any abnormalities in the organs.

[9] = Solubility test (shaking 24 h at 37° C., HPLC)
Method: (§2) Methods: Excess BFA and the compounds disclosed herein were added to 10 mL of three solvents, methanol, acetone and 5% DMSO+95% H2O, respectively, and shaken on a shaker at 37° C. at 100 r/min for 24 h. After 24 h, the samples were centrifuged at 15 000 r/min for 15 min to remove the undissolved compounds. The supernatant was filtered using a 0.45 μm membrane filter. The supernatant was appropriately diluted with methanol and contents of the compounds were determined by HPLC method to calculate the solubility.

physchem = settings: 37° C., x ± s, n = 3
Method: as §2

Row | SMILES | IC50 [1] [nM] | IC50 [2] [nM] | IC50 [3] [nM] | IC50 [4] [nM] | IC50 [5] [nM] | IC50 [6] [nM] | IC50 [7] [nM] | IC50 [8] [nM] | Deaths (Kunming breed mice) | Mental condition of the animals after administration (Kunming breed mice) | Results of anatomy: abnormality in organs (Kunming breed mice) | solubility at 24 h ([9]; 5% DMSO + 95% H2O) [mg/mL] | solubility at 24 h ([9]; acetone) [mg/mL] | solubility at 24 h ([9]; methanol) [mg/mL] | solubility at 24 h (physchem; Acetone) [mg/mL] | solubility at 24 h (physchem; 5% DMSO + 95% H2O) [mg/mL] | solubility at 24 h (physchem; Methanol) [mg/mL]
1 | C[C@H]1CCC/C=C/[C@@H]2C[C@H](OC(=O)/C=C/c3ccc(N(C)C)cc3)C[C@H]2[C@H](OC(=O)/C=C/c2ccc(N(C)C)cc2)/C=C/C(=O)O1 [Compound 10c, 4,7-O-bis(4-dimethylaminocinnamic acid)acyl BFA] | 1000 to 10000 | 1000 to 10000 | 1000 to 10000 | 100 to 1000 | 100 to 1000 | 1000 to 10000 | 100 to 1000 | 1000 to 10000 | no deaths | good mental condition | no significant abnormality in all organs | 0.44 ± 0.08 | 12.5 ± 0.92 (≈ 20 mM) | 13.3 ± 0.91 (≈ 21.3 mM) |  |  | 
2 | C[C@H]1CCC/C=C/[C@@H]2C[C@H](OC(=O)/C=C/c3cccnc3)C[C@H]2[C@H](O)/C=C/C(=O)O1 [Compound 16a, 7-O-(3-(pyridine-3-yl)acrylic acid)acyl BFA] | 100 to 1000 | 100 to 1000 | 100 to 1000 | 100 to 1000 | 100 to 1000 | < 100 | 100 to 1000 | < 100 | no deaths | good mental condition | no significant abnormality in all organs |  |  |  | 31.6 ± 0.72 (≈ 76.8 mM) |  | 
3 | C[C@H]1CCC/C=C/[C@@H]2C[C@H](OC(=O)/C=C/c3cnc4ccccc4c3)C[C@H]2[C@H](OC(=O)/C=C/c2cnc3ccccc3c2)/C=C/C(=O)O1 [Compound 17c] | 1000 to 10000 | 1000 to 10000 | 100 to 1000 | 1000 to 10000 | 100 to 1000 | 100 to 1000 | 1000 to 10000 | 100 to 1000 |  |  |  |  |  |  |  | 0.45 ± 0.28 | 20.4 ± 0.52 (≈ 31.8 mM)

— patent US20220064138A1, “MACROLIDE BREFELDIN A ESTER DERIVATIVES AND USE THEREOF” (OCEAN UNIVERSITY OF CHINA, priority 2019, published 2022)
